The results in this text go back to paper PMC8799717, “Pharmacological targeting PIKfyve and tubulin as an effective treatment strategy for double-hit lymphoma” (Cell Death Discovery, 2022).

What all share (test): biochemical
Set-up in all cases: KINOMEscan active-site-directed competition binding panel, 468 kinases, percent of DMSO control at 1 uM
Common to all, as to conditions: KINOMEscan binding, percent of DMSO control; read-out: Ctrl%

Experiment [1] deals with T1, ABL1(H396P)-nonphosphorylated (Homo sapiens, UniProt P00519, H396P).
T1 construct: nonphosphorylated

For experiment [2], the target named is T2, ABL1-nonphosphorylated (Homo sapiens, UniProt P00519).
T2 construct: nonphosphorylated

Experiment [3] deals with AURKB (Homo sapiens, UniProt Q96GD4).
AURKB, sequence (Q96GD4 whole entry): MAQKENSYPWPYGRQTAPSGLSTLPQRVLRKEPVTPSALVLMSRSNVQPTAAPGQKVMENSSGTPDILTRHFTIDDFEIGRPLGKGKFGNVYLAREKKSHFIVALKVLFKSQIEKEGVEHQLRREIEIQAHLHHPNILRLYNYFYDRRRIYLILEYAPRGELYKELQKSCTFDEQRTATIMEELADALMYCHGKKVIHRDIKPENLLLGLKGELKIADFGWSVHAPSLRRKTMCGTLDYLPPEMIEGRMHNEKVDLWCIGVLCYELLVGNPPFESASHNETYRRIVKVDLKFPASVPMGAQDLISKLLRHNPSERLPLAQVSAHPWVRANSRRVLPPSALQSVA
Experiment [4] concerns the target CSF1R (Homo sapiens, UniProt P07333).
In experiment [5] the target is EGFR(E746-A750del) (Homo sapiens, UniProt P00533, DEL746-750).
EGFR(E746-A750del), sequence (P00533 with tags, fused parts or gaps DEL746-750): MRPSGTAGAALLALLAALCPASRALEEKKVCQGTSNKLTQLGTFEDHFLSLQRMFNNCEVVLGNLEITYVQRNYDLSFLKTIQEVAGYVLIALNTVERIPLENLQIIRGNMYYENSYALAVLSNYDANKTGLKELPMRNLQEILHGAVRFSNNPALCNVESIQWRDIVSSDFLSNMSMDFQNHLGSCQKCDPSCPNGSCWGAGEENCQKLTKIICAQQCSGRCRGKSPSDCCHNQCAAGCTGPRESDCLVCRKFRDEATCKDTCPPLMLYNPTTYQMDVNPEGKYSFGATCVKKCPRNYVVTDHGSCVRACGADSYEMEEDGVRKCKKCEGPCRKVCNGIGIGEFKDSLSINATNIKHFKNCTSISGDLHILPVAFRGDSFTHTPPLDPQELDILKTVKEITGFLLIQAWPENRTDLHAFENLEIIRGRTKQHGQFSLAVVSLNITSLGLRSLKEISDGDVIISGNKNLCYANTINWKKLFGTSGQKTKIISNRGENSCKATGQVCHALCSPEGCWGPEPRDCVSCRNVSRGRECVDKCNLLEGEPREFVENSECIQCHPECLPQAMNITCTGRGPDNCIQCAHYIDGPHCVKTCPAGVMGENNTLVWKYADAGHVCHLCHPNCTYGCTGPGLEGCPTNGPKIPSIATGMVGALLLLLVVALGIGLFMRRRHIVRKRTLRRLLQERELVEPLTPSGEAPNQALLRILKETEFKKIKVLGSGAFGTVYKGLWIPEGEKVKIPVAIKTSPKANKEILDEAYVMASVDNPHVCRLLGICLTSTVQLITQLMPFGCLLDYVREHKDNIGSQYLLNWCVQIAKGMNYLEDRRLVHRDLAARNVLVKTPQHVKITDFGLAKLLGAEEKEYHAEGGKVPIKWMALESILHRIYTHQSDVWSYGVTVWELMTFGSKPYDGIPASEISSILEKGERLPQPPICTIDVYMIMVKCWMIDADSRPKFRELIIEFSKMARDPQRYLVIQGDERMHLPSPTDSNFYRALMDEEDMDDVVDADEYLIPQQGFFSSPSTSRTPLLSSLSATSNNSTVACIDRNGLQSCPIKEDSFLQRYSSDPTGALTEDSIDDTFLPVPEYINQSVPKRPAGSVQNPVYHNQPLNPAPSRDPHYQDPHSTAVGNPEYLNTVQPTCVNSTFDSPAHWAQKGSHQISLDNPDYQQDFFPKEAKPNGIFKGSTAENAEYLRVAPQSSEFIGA
The target of experiment [6] is FGFR3 (Homo sapiens, UniProt P22607).
Experiment [7] has as its target GRK4 (Homo sapiens, UniProt P32298).
The target in experiment [8] is HIPK2 (Homo sapiens, UniProt Q9H2X6).
The target of experiment [9] is MAP3K1 (Homo sapiens, UniProt Q13233).
Experiment [10] has as its target MAP3K4 (Homo sapiens, UniProt Q9Y6R4).
Experiment [11] concerns the target MARK4 (Homo sapiens, UniProt Q96L34).
Experiment [12] concerns the target MYO3B (Homo sapiens, UniProt Q8WXR4).
The target of experiment [13] is NEK3 (Homo sapiens, UniProt P51956).
The target of experiment [14] is T3, NIM1 (Homo sapiens, UniProt Q8IY84).
T3 construct: gene NIM1K
T3 sequence (Q8IY84 whole entry): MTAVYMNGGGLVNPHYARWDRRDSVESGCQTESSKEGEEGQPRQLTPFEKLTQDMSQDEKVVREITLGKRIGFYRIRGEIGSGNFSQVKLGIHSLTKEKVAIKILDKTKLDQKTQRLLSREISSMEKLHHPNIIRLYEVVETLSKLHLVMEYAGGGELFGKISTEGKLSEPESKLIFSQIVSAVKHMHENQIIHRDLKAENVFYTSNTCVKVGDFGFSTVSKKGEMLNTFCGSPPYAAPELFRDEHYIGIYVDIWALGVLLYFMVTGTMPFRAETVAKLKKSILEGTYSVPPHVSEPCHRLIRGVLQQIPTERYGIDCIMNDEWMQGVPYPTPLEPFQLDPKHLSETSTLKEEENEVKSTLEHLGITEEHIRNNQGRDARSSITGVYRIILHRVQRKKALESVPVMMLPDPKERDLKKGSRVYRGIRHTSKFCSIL

The target in experiment [15] is PIP5K1C (Homo sapiens, UniProt O60331).
PIP5K1C, sequence (O60331 whole entry): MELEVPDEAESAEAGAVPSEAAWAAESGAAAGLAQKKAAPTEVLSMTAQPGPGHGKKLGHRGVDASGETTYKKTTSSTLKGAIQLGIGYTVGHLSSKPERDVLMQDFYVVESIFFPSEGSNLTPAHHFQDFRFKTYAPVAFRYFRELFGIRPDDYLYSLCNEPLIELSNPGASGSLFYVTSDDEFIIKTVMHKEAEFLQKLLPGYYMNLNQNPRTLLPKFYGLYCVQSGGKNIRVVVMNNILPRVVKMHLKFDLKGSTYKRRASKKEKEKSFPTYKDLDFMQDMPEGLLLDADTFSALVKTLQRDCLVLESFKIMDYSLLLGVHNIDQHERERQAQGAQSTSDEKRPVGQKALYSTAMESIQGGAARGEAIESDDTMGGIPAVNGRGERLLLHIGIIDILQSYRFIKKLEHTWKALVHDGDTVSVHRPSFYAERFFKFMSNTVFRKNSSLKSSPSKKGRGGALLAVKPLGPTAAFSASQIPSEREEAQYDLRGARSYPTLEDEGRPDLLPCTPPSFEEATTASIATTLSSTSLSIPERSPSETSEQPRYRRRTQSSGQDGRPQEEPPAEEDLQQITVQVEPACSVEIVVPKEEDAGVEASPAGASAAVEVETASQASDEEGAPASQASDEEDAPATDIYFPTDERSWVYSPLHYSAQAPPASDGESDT
Experiment [16] concerns the target T4, PKAC-alpha (Homo sapiens, UniProt P17612).
T4 construct: gene PRKACA

Experiment [17] has as its target SGK2 (Homo sapiens, UniProt Q9HBY8).
Experiment [18] concerns the target T5, SIK (Homo sapiens, UniProt P57059).
T5 construct: gene SIK1

Experiment [19] deals with T6, SgK110 (Homo sapiens, UniProt P0C264).
T6 construct: gene SBK3

Experiment [20] has as its target TNIK (Homo sapiens, UniProt Q9UKE5).
In experiment [21] the target is T7, TRKC (Homo sapiens, UniProt Q16288).
T7 construct: gene NTRK3

Experiment [22] addresses WEE2 (Homo sapiens, UniProt P0C1S8).
Experiment [23] has as its target WNK4 (Homo sapiens, UniProt Q96J92).
For experiment [24], the target named is T8, YANK2 (Homo sapiens, UniProt Q9NY57).
T8 construct: gene STK32B
T8 sequence (Q9NY57 whole entry): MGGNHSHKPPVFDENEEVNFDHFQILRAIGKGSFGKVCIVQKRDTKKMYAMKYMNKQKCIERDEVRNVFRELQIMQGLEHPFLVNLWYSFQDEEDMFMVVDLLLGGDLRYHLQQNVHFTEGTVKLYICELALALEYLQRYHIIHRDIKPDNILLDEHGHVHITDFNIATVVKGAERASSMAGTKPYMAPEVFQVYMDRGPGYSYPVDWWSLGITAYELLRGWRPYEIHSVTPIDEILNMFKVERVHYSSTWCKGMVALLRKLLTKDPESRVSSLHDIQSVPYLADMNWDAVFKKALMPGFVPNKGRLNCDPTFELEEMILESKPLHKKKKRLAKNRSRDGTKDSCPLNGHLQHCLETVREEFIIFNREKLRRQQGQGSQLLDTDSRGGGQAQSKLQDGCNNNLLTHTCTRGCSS

WNK4, sequence (Q96J92 whole entry): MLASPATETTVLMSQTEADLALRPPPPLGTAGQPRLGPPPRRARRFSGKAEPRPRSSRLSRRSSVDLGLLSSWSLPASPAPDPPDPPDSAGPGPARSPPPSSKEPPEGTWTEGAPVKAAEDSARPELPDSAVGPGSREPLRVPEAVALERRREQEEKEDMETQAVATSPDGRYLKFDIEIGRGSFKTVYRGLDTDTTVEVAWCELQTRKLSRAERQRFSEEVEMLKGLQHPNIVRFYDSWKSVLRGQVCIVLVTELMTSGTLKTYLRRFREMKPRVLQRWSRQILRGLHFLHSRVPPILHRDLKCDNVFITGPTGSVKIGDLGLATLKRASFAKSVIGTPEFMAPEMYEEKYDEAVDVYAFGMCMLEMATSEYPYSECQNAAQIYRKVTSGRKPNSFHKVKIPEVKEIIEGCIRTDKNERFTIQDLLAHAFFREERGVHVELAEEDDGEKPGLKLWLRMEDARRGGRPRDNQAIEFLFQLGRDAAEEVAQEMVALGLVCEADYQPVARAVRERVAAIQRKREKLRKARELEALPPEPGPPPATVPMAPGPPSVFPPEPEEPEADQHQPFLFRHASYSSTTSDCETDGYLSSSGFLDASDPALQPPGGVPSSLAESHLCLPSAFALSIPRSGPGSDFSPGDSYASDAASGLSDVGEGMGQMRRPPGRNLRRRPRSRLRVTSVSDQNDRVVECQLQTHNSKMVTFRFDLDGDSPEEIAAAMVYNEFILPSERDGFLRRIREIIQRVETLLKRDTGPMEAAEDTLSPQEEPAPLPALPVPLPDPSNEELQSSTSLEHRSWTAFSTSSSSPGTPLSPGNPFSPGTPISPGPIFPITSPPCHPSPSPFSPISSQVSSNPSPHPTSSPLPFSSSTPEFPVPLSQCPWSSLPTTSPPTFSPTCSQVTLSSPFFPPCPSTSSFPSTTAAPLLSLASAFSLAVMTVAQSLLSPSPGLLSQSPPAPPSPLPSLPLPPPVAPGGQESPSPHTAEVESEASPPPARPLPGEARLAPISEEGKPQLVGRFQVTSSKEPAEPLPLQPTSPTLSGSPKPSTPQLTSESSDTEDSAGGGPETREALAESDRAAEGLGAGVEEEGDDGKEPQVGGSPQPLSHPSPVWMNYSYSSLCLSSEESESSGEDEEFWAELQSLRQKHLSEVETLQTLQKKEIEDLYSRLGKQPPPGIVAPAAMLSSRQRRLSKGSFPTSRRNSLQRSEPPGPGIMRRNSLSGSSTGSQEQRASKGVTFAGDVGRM
GRK4, sequence (P32298 whole entry): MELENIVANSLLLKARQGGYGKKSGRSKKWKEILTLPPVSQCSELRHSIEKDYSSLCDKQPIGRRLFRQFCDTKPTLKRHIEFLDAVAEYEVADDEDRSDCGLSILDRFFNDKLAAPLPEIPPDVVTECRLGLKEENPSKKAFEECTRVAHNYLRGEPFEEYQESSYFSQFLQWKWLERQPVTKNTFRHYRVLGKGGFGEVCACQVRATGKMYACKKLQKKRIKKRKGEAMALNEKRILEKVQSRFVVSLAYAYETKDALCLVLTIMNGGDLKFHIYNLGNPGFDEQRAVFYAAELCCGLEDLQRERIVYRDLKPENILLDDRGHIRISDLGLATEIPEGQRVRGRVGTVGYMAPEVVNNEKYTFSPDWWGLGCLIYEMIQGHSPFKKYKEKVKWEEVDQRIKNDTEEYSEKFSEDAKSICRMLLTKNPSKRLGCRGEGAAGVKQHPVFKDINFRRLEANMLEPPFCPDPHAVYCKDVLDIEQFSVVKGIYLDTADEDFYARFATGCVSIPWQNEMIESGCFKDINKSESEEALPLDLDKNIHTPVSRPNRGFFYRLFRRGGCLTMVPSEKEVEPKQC

As to `Cc1ccc(NC(=O)c2cccc(C(F)(F)F)c2)cc1Nc1cc(-c2cccnc2)nc2[nH]ccc12` [HZX-02-059], the remaining binding at 1 µM was 55% in [1]; 14% in experiment [2]; 100% in experiment [3]; 6.1% in experiment [4]; 90% in experiment [5]; 86% in experiment [6]. The remaining binding at 1 µM came to 83% in experiment [7]; 100% in experiment [8]; 56% in [9]; 100% in experiment [10]; 100% in experiment [11]; 97% in experiment [12]. Also, the remaining binding at 1 µM turned out to be 54% in experiment [13]; 99% in experiment [14]; 73% in experiment [15]; 94% in experiment [16]; 99% in [17]; 90% in [18]. The remaining binding at 1 µM in [19], in experiment [20], in experiment [21], in [22], in experiment [23] and in experiment [24] was 100% each time.
